In US20060058312A1, “Stabilized aqueous preparation for injection” (priority 2004, published 2006):

Key:
[1] = Stability test at 60° C., addition amount of ascorbic acid at pH 8.7 (Example 5), HPLC content; format: physicochemical; conditions: for remaining calcium levofolinate content compared with the initial value (100): 60° C.
Method: For the aqueous preparations obtained in (1) to (3) above, tests evaluating stability at 60° C./3 weeks were performed. The calcium levofolinate content remaining in the aqueous solution was measured using high performance liquid chromatography under the following conditions (the same were employed in the following experiments) 2 ml each of the test preparations were weighed, and 10 ml of the internal standard solution described below (the same was employed in the following experiments) were added thereto. Subsequently, water was added to adjust the total volume of the solution to 50 ml, thereby to prepare a test solution. Meanwhile, 62.5 mg of calcium levofolinate were dissolved in water so as to prepare a 25 ml solution. Then, to 10 ml of the resultant solution were added 10 ml of the internal standard solution, and the total volume of the solution was adjusted to 50 ml by adding water, thereby to prepare a standard solution. For 20 μl of the standard solution and the test solution, the content of calcium levofolinate was measured by the liquid chromatography method under the following conditions.
1) Measurement Conditions • Detector: Ultraviolet absorptiometer (Measurement wavelength: 254 nm) • Column: A stainless tube having an internal diameter of 4.0 mm and a length of 15 cm was filled with 5 μm of octadecylsilylated silica gel for liquid chromatography. • Column temperature: A constant temperature near 45° C. • Mobile phase: The pH value of a mixed test solution containing 0.008 mol/L of disodium hydrogen phosphate solution/methanol/40% aqueous tetrabutylammonium hydroxide solution (385:110:1.3 (volume ratio)) was adjusted to 7.5 by adding phosphoric acid. • Flow rate: The flow rate was regulated so that the retention time of calcium levofolinate became about 10 minutes. • Internal standard solution: A solution prepared by adding water to 0.04 g of methyl parahydroxybenzoate so that the whole amount of solution is 100 ml.
About 80 ml of water for injection were added to a beaker (volume: 200 ml). Then, 0.56 g of sodium chloride, 0.3 g of tromethamine, and 1.375 g of calcium levofolinate (1.1 g, in terms of 5-formyl-(6S)-tetrahydrofolic acid) were added to it with bubbling of nitrogen gas, and the components were dissolved with stirring (this procedure was performed 5 times). Subsequently, 0.05 g, 0.075 g, 0.1 g, 0.2 g, or 0.3 g of ascorbic acid was added to each solution, and was dissolved with stirring, to prepare five solutions. Thereafter, in the case where the addition amount of ascorbic acid is 0.05 g, 0.075 g, or 0.1 g, the pH value of each solution was regulated to 8.7 by adding 5% hydrochloric acid. In the case where the addition amount of ascorbic acid is 0.2 g, or 0.3 g, the pH value of each solution was regulated to 8.7 by adding 1% aqueous sodium hydroxide solution dropwise. Water for injection was further added to each solution to adjust the total volume of the solution to 100 ml. Subsequently, the bubbling of nitrogen gas was stopped, and each solution was filtered with a filtration filter, thereby to yield a solution for injection. Subsequently, each of five 5 ml-glass ampules the inside space of which had been substituted by nitrogen gas, was filled with 5 ml of the resultant solution for injection, and was sealed by heating.
For each aqueous preparation obtained as above, a test evaluating stability at 60° C. was performed by measuring the remaining calcium levofolinate content by the high performance liquid chromatography method.

[2] = Change of pH value of the aqueous solution during storage; format: physicochemical; conditions: aqueous solution adjusted to pH 6 to 7

In the case of `Nc1nc(=O)c2c([nH]1)NC[C@H](CNc1ccc(C(=O)N[C@@H](CCC(=O)O)C(=O)O)cc1)N2C=O` [calcium levofolinate, (6S)-N-[4-[[(2-amino-5-formyl-1,4,5,6,7,8-hexahydro-4-oxo-6-pteridinyl)methyl]amino]benzoyl]-L-glutamic acid], the “remaining calcium levofolinate content compared with the initial value (100)” value ([1]; ascorbic acid 0.05%, 1 month) is reported as 84.5, the “remaining calcium levofolinate content compared with the initial value (100)” value ([1]; ascorbic acid 0.05%, 1 week) is reported as 97.0 and the “remaining calcium levofolinate content compared with the initial value (100)” value ([1]; ascorbic acid 0.05%, 2 weeks) is reported as 92.1. For the same molecule, the “remaining calcium levofolinate content compared with the initial value (100)” value ([1]; ascorbic acid 0.05%, 3 weeks) was 90.3, the “calcium levofolinate content, Initial value (100)” value ([1]; ascorbic acid 0.05%) was 100 and the “remaining calcium levofolinate content compared with the initial value (100)” value ([1]; ascorbic acid 0.075%, 1 month) was 85.7. The “remaining calcium levofolinate content compared with the initial value (100)” value ([1]; ascorbic acid 0.075%, 1 week) was 97.1, the “remaining calcium levofolinate content compared with the initial value (100)” value ([1]; ascorbic acid 0.075%, 2 weeks) was 91.5 and the “remaining calcium levofolinate content compared with the initial value (100)” value ([1]; ascorbic acid 0.075%, 3 weeks) was 90.9. For the same molecule, the “calcium levofolinate content, Initial value (100)” value ([1]; ascorbic acid 0.075%) was 100, the “remaining calcium levofolinate content compared with the initial value (100)” value ([1]; ascorbic acid 0.1%, 1 month) was 84.9 and the “remaining calcium levofolinate content compared with the initial value (100)” value ([1]; ascorbic acid 0.1%, 1 week) was 97.3. For the same molecule, the “remaining calcium levofolinate content compared with the initial value (100)” value ([1]; ascorbic acid 0.1%, 2 weeks) was 92.2, the “remaining calcium levofolinate content compared with the initial value (100)” value ([1]; ascorbic acid 0.1%, 3 weeks) was 89.3 and the “calcium levofolinate content, Initial value (100)” value ([1]; ascorbic acid 0.1%) was 100. The “remaining calcium levofolinate content compared with the initial value (100)” value ([1]; ascorbic acid 0.2%, 1 month) was 83.4, the “remaining calcium levofolinate content compared with the initial value (100)” value ([1]; ascorbic acid 0.2%, 1 week) was 96.6 and the “remaining calcium levofolinate content compared with the initial value (100)” value ([1]; ascorbic acid 0.2%, 2 weeks) was 91.5. For the same molecule, the “remaining calcium levofolinate content compared with the initial value (100)” value ([1]; ascorbic acid 0.2%, 3 weeks) was 88.6, the “calcium levofolinate content, Initial value (100)” value ([1]; ascorbic acid 0.2%) was 100 and the “remaining calcium levofolinate content compared with the initial value (100)” value ([1]; ascorbic acid 0.3%, 1 month) was 82.0. The “remaining calcium levofolinate content compared with the initial value (100)” value ([1]; ascorbic acid 0.3%, 1 week) was 96.1, the “remaining calcium levofolinate content compared with the initial value (100)” value ([1]; ascorbic acid 0.3%, 2 weeks) was 90.5 and the “remaining calcium levofolinate content compared with the initial value (100)” value ([1]; ascorbic acid 0.3%, 3 weeks) was 87.7. For the same molecule, the “calcium levofolinate content, Initial value (100)” value ([1]; ascorbic acid 0.3%) was 100 and the “change of pH value of the aqueous solution during storage” value [2] was “gradually changes to an acid region”.
